Measurements reported in US20240034649A1, “METHODS FOR ERADICATING BIOFILMS FROM PLUMBING SYSTEMS” (GORDON & ROSENBLATT, LLC, priority 2014, published 2024).

Legend:
[1] = tested on: Pseudomonas aeruginosa biofilms; test: Minimal Biofilm Eradication Concentration (MBEC) assay, Calgary biofilm device; assay type: cell-based; details: 22-25° C
[2] = at STP; cited from earlier work
Biofilm = details: shock dose 50-80 mg/mL over 8 hours, acidic conditions, outlets flushed approx. 1 hour; cited from earlier work
Legionella = details: cited from earlier work

Row | Molecule | Log10 reduction ([1]; Bleach 3.15 ppm, pH 6.5, 30 min) | Log10 reduction ([1]; Bleach 3.15 ppm, pH 7.5, 30 min) | Log10 reduction ([1]; Bleach 6.31 ppm, pH 6.5, 30 min) | Log10 reduction ([1]; Bleach 6.31 ppm, pH 7.5, 30 min) | Log10 reduction ([1]; Bleach 12.6 ppm, pH 6.5, 30 min) | Log10 reduction ([1]; Bleach 12.6 ppm, pH 7.5, 30 min) | Log10 reduction ([1]; Bleach 50.5 ppm, pH 6.5, 30 min) | Log10 reduction ([1]; Bleach 50.5 ppm, pH 7.5, 30 min) | solubility in water relative to chlorine [2] | bacteria recovered from showerheads after treatment (Biofilm) | Log10 reduction ([1]; CD 3.12 ppm, pH 6.5, 30 min) | Log10 reduction ([1]; CD 3.12 ppm, pH 7.5, 30 min) | Log10 reduction ([1]; CD 6.25 ppm, pH 6.5, 30 min) | Log10 reduction ([1]; CD 6.25 ppm, pH 7.5, 30 min) | Log10 reduction ([1]; CD 12.5 ppm, pH 6.5, 30 min) | Log10 reduction ([1]; CD 12.5 ppm, pH 7.5, 30 min) | Log10 reduction ([1]; CD 50.0 ppm, pH 6.5, 30 min) | Log10 reduction ([1]; CD 50.0 ppm, pH 7.5, 30 min) | time needed to achieve significant reduction in Legionella positivity (Legionella)
1 | OCl [Bleach, sodium hypochlorite] | 0.16 CFU/mm^2 | 0.96 CFU/mm^2 | Total inhibition | 1.91 CFU/mm^2 | Total inhibition | 3.03 CFU/mm^2 | Total inhibition | Total inhibition | – | – | – | – | – | – | – | – | – | – | –
2 | chlorine dioxide [CD] | – | – | – | – | – | – | – | – | approximately 10 times | > 3000 cfu/ml | 0.82 CFU/mm^2 | 1.63 CFU/mm^2 | 2.56 CFU/mm^2 | 2.38 CFU/mm^2 | 2.34 CFU/mm^2 | 2.49 CFU/mm^2 | Total inhibition | total inhibition | > 12 months
